Target: T1, BCAT2 (Homo sapiens, UniProt O15382)
T1 sequence (O15382 28-392): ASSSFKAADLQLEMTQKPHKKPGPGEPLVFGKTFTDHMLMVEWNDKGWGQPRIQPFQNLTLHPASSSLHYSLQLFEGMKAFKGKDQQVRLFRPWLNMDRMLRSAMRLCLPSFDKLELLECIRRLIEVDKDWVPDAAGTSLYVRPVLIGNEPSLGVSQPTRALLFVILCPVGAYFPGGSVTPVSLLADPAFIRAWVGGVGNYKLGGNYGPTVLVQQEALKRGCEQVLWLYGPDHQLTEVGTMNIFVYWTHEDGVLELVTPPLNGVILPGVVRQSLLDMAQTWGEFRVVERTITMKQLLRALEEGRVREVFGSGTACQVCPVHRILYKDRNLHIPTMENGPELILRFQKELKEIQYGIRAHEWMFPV
Test: BCAT2 in vitro enzyme inhibition assay (hBCAT2, glutamate dehydrogenase/diaphorase/resazurin coupled fluorescence read)
Assay type: biochemical
Settings: hBCAT2, 1 h preincubation at 25° C., one hour reaction; average where tested multiple times
Method: • 2×Buffer: 200 mM Tris pH 8.0, 300 mM NaCl, 0.1% BSA • 1.67×hBCAT2 Enzyme Mix: 0.33 μg/mL hBCAT2, 1× Buffer • 2.5×Substrate Mix: 460 µM L-leucine, 420 µM α-KetoGlutarate, 10 U/mL glutamate dehydrogenase, 10 mM NAD, […] diaphorase, […] Resazurin
BCAT2 enzyme stock solution was diluted to prepare a 1.67×hBCAT2 Enzyme Mix. 1 μL of test compound was first added to the reaction wells followed by 30 μL of 1.67×hBCAT2 Enzyme Mix and incubated at room temperature (25° C.) for one hour. Meanwhile the Substrate Mix was prepared. The reaction was initiated by the addition of 20 μL of the 2.5×Substrate Mix, bringing the final reaction mix of all components to 1×. Reactions were quenched after one hour by the addition of 25 μL of 6% SDS and reaction progress was measured via fluorescence read (Ex 540/Em 590).
Test compounds were prepared at 50×final concentration in DMSO, 1 to 3 dilutions were made for 10 points. The compounds were added to the assay as a 1 to 50 dilution (1 μL in 50 μL) to yield a top assay final concentration of 100 μM, decreasing 3-fold for 10 points. Each compound dilution series test also included an assay max (1 μL DMSO Added in lieu of compound, Full Reaction Components Included) and Min (1 μL DMSO Added in lieu of compound, 30 μl of 1.67×hBCAT2 Enzyme Mix replated by 30 μL of 1×Buffer). All tests were performed in technical duplicate.
Where a compound was tested multiple times, the average value of the tests is reported.

SMILES | IC50 [nM]
CC(=O)N1C[C@@H](NC(=O)c2cc(F)ccn2)C[C@@H](n2c(-c3ccccc3F)nc3cnc(-c4nc(C)co4)cc32)C1 [Example 166, N-((3S,5R)-1-acetyl-5-(2-(2-fluorophenyl)-6-(4-methyloxazol-2-yl)-1H-imidazo[4,5-c]pyridin-1-yl)piperidin-3-yl)-4-fluoropicolinamide] | < 100
O=C(N[C@H]1CCC[C@@H](n2c(-c3ccccc3F)nc3cnc(-c4nc[nH]n4)cc32)C1)c1cc(Cl)cc[n+]1[O-] [Example 67, 4-chloro-2-(((1S,3R)-3-(2-(2-fluorophenyl)-6-(1H-1,2,4-triazol-3-yl)-1H-imidazo[4,5-c]pyridin-1-yl)cyclohexyl)carbamoyl)pyridine 1-oxide] | < 100
O=C(N[C@@H]1C[C@H](n2c(-c3ccccc3OCCO)nc3ccc(-c4nc[nH]n4)cc32)CC(F)(F)C1)c1cc(F)ccn1 [Example 231, N-((1R,5S)-3,3-difluoro-5-(2-(2-(2-hydroxyethoxy)phenyl)-6-(1H-1,2,4-triazol-3-yl)-1H-benzo[d]imidazol-1-yl)cyclohexyl)-4-fluoropicolinamide] | < 100
CN1CC(NC(=O)c2cc(Cl)ccc2F)CC(n2c(-c3ncccc3F)nc3cnc(-c4nc[nH]n4)cc32)C1 (stereo not shown) [Example 147, 5-chloro-2-fluoro-N-(5-(2-(3-fluoropyridin-2-yl)-6-(1H-1,2,4-triazol-3-yl)-1H-imidazo[4,5-c]pyridin-1-yl)-1-methylpiperidin-3-yl)benzamide] | 100 to 500
COc1ccc(F)cc1C(=O)N[C@H]1CCC[C@@H](n2c(-c3ccccc3F)nc3cnc(-c4nc[nH]n4)cc32)C1 [Example 8, 5-fluoro-N-((1S,3R)-3-(2-(2-fluorophenyl)-6-(1H-1,2,4-triazol-3-yl)-1H-imidazo[4,5-c]pyridin-1-yl)cyclohexyl)-2-methoxybenzamide] | < 100
O=C(N[C@H]1CCC[C@@H](n2c(-c3ccccc3F)nc3cnc(-c4nc[nH]n4)cc32)C1)c1cc(Cl)ccc1OC(F)F [compound 50] | < 100
CN1C[C@@H](NC(=O)c2cc(Cl)ccc2F)C[C@@H](n2c(-c3ccccc3F)nc3cnc(-c4nc[nH]n4)cc32)C1 [Example 144, 5-chloro-2-fluoro-N-((3S,5R)-5-(2-(2-fluorophenyl)-6-(1H-1,2,4-triazol-3-yl)-1H-imidazo[4,5-c]pyridin-1-yl)-1-methylpiperidin-3-yl)benzamide] | 100 to 500
CN1C[C@H](NC(=O)c2cc(F)ccc2F)C[C@H](n2c(-c3ccccc3OCCO)nc3cnc(-n4nccn4)cc32)C1 [Example 155, 2,5-difluoro-N-((3R,5S)-5-(2-(2-(2-hydroxyethoxy)phenyl)-6-(2H-1,2,3-triazol-2-yl)-1H-imidazo[4,5-c]pyridin-1-yl)-1-methylpiperidin-3-yl)benzamide] | < 100
CC(C)Cc1nc2cnc(-c3nc[nH]n3)cc2n1[C@@H]1CCC[C@H](NC(=O)c2cc(Cl)ccc2OC2CC2)C1 [Example 79, 5-chloro-2-cyclopropoxy-N-((1S,3R)-3-(2-isobutyl-6-(1H-1,2,4-triazol-3-yl)-1H-imidazo[4,5-c]pyridin-1-yl)cyclohexyl)benzamide] | < 100
CN1C[C@H](NC(=O)c2cc(Cl)ccn2)C[C@H](n2c(-c3ccccc3OCCO)nc3cnc(-c4ncco4)cc32)C1 [Example 161, 4-chloro-N-((3R,5S)-5-(2-(2-(2-hydroxyethoxy)phenyl)-6-(oxazol-2-yl)-1H-imidazo[4,5-c]pyridin-1-yl)-1-methylpiperidin-3-yl)picolinamide] | < 100
O=C(N[C@H]1CCC[C@@H](n2c(-c3ncccc3F)nc3ccc(-c4nc[nH]n4)cc32)[C@@H]1O)c1cc(F)ccc1F [Example 222, 2,5-difluoro-N-((1S,2R,3R)-3-(2-(3-fluoropyridin-2-yl)-6-(1H-1,2,4-triazol-3-yl)-1H-benzo[d]imidazol-1-yl)-2-hydroxycyclo-hexyl)benzamide] | 100 to 500
CN1C[C@@H](NC(=O)c2cc(F)ccc2F)C[C@@H](n2c(-c3ccccc3OCCO)nc3cnc(-c4ncco4)cc32)C1 [Example 159, 2,5-difluoro-N-((3S,5R)-5-(2-(2-(2-hydroxyethoxy)phenyl)-6-(oxazol-2-yl)-1H-imidazo[4,5-c]pyridin-1-yl)-1-methylpiperidin-3-yl)benzamide] | > 1000
COc1ccnc(C(=O)N[C@H]2CCC[C@@H](n3c(-c4ccccc4F)nc4cnc(-c5nc[nH]n5)cc43)C2)c1 [Example 60, N-((1S,3R)-3-(2-(2-fluorophenyl)-6-(1H-1,2,4-triazol-3-yl)-1H-imidazo[4,5-c]pyridin-1-yl)cyclohexyl)-4-methoxypicolinamide] | < 100
N#Cc1ccccc1-c1nc2cnc(-c3nc[nH]n3)cc2n1[C@@H]1CCC[C@H](N2COc3ccc(F)cc3C2=O)C1 [Example 210, 2-(1-((1R,3S)-3-(6-fluoro-4-oxo-2H-benzo[e][1,3]oxazin-3(4H)-yl)cyclohexyl)-6-(1H-1,2,4-triazol-3-yl)-1H-imidazo[4,5-c]pyridin-2-yl)benzonitrile] | < 100
CN1C[C@H](NC(=O)c2cc(F)ccc2F)C[C@H](n2c(-c3ccccc3OCCO)nc3cnc(-c4ncco4)cc32)C1 [Example 158, 2,5-difluoro-N-((3R,5S)-5-(2-(2-(2-hydroxyethoxy)phenyl)-6-(oxazol-2-yl)-1H-imidazo[4,5-c]pyridin-1-yl)-1-methylpiperidin-3-yl)benzamide] | < 100
CN1C[C@@H](NC(=O)c2cc(F)ccn2)C[C@@H](n2c(-c3ccccc3OCCO)nc3cnc(-c4ncccn4)cc32)C1 [Example 162, 4-fluoro-N-((3S,5R)-5-(2-(2-(2-hydroxyethoxy)phenyl)-6-(pyrimidin-2-yl)-1H-imidazo[4,5-c]pyridin-1-yl)-1-methylpiperidin-3-yl)picolinamide] | 500 to 1000
CO[C@H]1C[C@H](NC(=O)c2cc(Cl)ccc2F)C[C@H](n2c(-c3ccccc3OCCO)nc3cnc(-c4ncco4)cc32)C1 [Example 124, 5-chloro-2-fluoro-N-((1R,3S,5S)-3-(2-(2-(2-hydroxyethoxy)phenyl)-6-(oxazol-2-yl)-1H-imidazo[4,5-c]pyridin-1-yl)-5-methoxycyclohexyl)benzamide] | < 100
O=C(N[C@H]1CCC[C@@H](n2c(-c3ncccc3F)nc3cnc(-c4nc[nH]n4)cc32)C1)c1cc(Cl)ccc1OC(F)F [compound 47] | < 100
O=C(N[C@H]1CCC[C@@H](n2c(-c3ncccc3OC(F)F)nc3cnc(-c4nc[nH]n4)cc32)C1)c1cc(Cl)ccc1OC(F)F [compound 66] | < 100
O=C(N[C@H]1CCC[C@@H](n2c(-c3ccccc3OC(F)F)nc3cnc(-c4nc[nH]n4)cc32)C1)c1cc(Cl)ccc1OC(F)F [compound 51] | < 100
CN1C[C@@H](NC(=O)c2cc(Cl)ccn2)C[C@@H](n2c(-c3ccccc3OCCO)nc3cnc(-c4ncco4)cc32)C1 [Example 160, 4-chloro-N-((3S,5R)-5-(2-(2-(2-hydroxyethoxy)phenyl)-6-(oxazol-2-yl)-1H-imidazo[4,5-c]pyridin-1-yl)-1-methylpiperidin-3-yl)picolinamide] | > 1000
CN1C[C@@H](NC(=O)c2cc(Cl)ccn2)C[C@@H](n2c(-c3ccccc3OC(F)F)nc3cnc(-c4nc[nH]n4)cc32)C1 [compound 142] | 100 to 500
